Results taken from patent US8097624B2, “Cycloalkyl derivatives of 3-hydroxy-4-pyridinones” (Apotex Inc., priority 2006, dated 2012).
Structures can show the parent of a compound that is named as a salt. Where two headings read alike, the source gives them in different places.

Legend:
[1] = pKa determination by potentiometric or spectrophotometric titration; assay type: physicochemical; settings: titration in 0.1 M NaCl at 22° C.
Method: The pKa values of ligands were determined by potentiometric titration when a ligand concentration greater than 1×10^−2 M in water could be prepared. In a typical experiment, the sample solution (2.67×10^−2 M) was prepared by the following method: Apo6619 (92.6 mg) was weighed into a 25-ml beaker, followed by the addition of 0.1 M NaCl (15 ml). The mixture was sonicated for 10 minutes to give a clear colorless solution. Nitrogen gas was then allowed to bubble through the solution. 1.000 N Hydrochloric acid (624 μl, 1.5 equivalent) was added to the solution to give pH 1.88. The solution was allowed to equilibrate at 22° C. for 60 minutes.
The solution was then titrated against 1.000 N NaOH at 22° C. to reach pH 11.8. For each addition of base, the solution was allowed to equilibrate until a constant pH reading was reached. The volume of the base added and the pH reading were recorded for each measurement. 137 measurements were taken to finish the experiment.
The data set of pH vs. base volume was analyzed using Hyperquad 2000 (Version 2.1, Peter Gans, University of Leeds).
The pKa values of ligands can be determined by spectrophotometric titration when both the conjugated acid and base absorb in the UV-Visible region. In a typical experiment, the sample solution was prepared by the following method: Apo6617 (0.792 mg) was weighed into an 80-ml beaker, followed by the addition of 0.1 M NaCl (50 ml). The mixture was sonicated for 5 minutes to give a clear colorless solution. Nitrogen gas was allowed to bubble through the solution. 1.000 N NaOH (50 μl) was added to give pH 10.9. The solution was allowed to equilibrate at 22° C. for 1 hour. A sipper system was used for the circulation of the sample solution between the beaker and the flow cell.
The sample solution was titrated against standard hydrochloric acid solutions at 22° C. to reach pH 1.40. After each addition of acid the solution was allowed to equilibrate until a constant pH reading was reached. The pH and the UV-Vis spectrum were recorded for each measurement. The peak wavelengths of the deprotonated species (L^−), the neutral species (LH), and the protonated species (LH2^+) were 314 nm, 281 nm, and 249 nm, respectively. In the region of pH>6, after each addition of acid there was a slight decrease in the absorbance at 314 nm and a slight increase at 281 nm in each spectrum, whereas in the region of pH<5, after each addition of acid there was a slight decrease in the absorbance at 281 nm and a slight increase at 249 nm in each spectrum. The solution was titrated until there was no obvious change in the spectra after several subsequent additions of acid. 116 measurements were taken to finish the experiment.
The resulting data set was then analyzed using pHAB (Peter Gans, University of Leeds).

[2] = Distribution coefficient determination (D7.4), 1-octanol / MOPS buffer; assay type: physicochemical; settings: 1-octanol / MOPS buffer pH 7.4
Method: MOPS buffer (50 mM, pH=7.4) and 1-octanol were used as the aqueous phase and the organic phase, respectively, for distribution coefficient determinations. The MOPS buffer and 1-octanol were pre-saturated with each other before use.
In a typical experiment, an organic stock solution of Apo6618 (1-cyclopropyl-3-hydroxy-6-methyl-4-oxo-1,4-dihydro-pyridine-2-carboxylic acid cyclopropylamide) was prepared by weighing out 0.50 mg of the compound into a 10-mL volumetric flask and bringing to volume with 1-octanol. The solution was then sonicated for 60 minutes so that the sample could dissolve completely. The concentration of the stock solution was calculated as C^0org=2.0×10^−4 M. The organic standard solution of Apo6618 with 2.0×10^−5 M was prepared in a 10-mL volumetric flask by 10 times dilution of the stock solution with 1-octanol. The sample solution was prepared in a 10-mL volumetric flask. The stock sample solution (3 ml) was pipetted into the flask followed by the addition of MOPS buffer (3 ml). The standard and sample solutions were then vortexed for 2 hours. After vortexing, the solutions were transferred to test tubes and centrifuged at 4000 rpm for 15 minutes. UV-Vis spectra were recorded for the standard solution and the organic (top) phase of the sample solution at 22° C. The distribution coefficient, D7.4, was calculated using the following equation: D7.4=[Aorg/(C^0orgεorg−Aorg)]×(Vaqu/Vorg)
Where εorg=the molar extinction coefficient of the peak wavelength (λmax) obtained from the UV-Vis spectrum of the organic standard solution; Aorg=absorbance of the organic phase in the sample solution at the same λmax; C^0org=the concentration of the stock solution; Vaqu=the volume of MOPS buffer in the sample solution; Vorg=the volume of the stock solution in the sample solution.

[3] = Metal complexation constants, Fe system (spectrophotometric titration; pM by Hyss); assay type: binding; settings: for Log β3: Fe(III) overall complexation constant; for pFe^3+: total iron 10^−6 M, ligand 10^−5 M, pH 7.4, calculated from experimental pKa and complexation constants
Method: Compounds of this invention are designed to improve properties to known deferiprone analogues. […]. The definition of pFe^3+ used herein is the concentration of ferric ion in solution when the total amount of iron equals 10^−6 M and the concentration of ligand is 10^−5 M and pH is 7.4. It is calculated using experimental determined pKa and metal complexation constants using Hyperquad software (Version 2.1, Peter Gans, University of Leeds). The lowering of the pKa value of the C3 phenolic OH to less than 8.8 ensures that a higher pFe^3+ value when combined with a favorable complexation constant β3. The concept of complexation is detailed below.
The stepwise and overall complexation constants of a bidentate ligand such as 3-hydroxy-4-pyridinone follow: Fe(III)+Ligand→Fe[Ligand]1K1 Fe[Ligand]1+Ligand→Fe[Ligand]2K2 Fe[Ligand]2+Ligand→Fe[Ligand]3K3 Complexation constant β3=K1.K2.K3
Stepwise formation constants for M^n+-ligand systems were determined by spectrophotometric titration when metal complexes have a strong absorbance in the visible region due to ligand to metal charge transfer. In a typical experiment, the sample solution was prepared according to the following method: Apo6619 (10.7 mg) was weighed into an 80-ml beaker, followed by the addition of 0.1 M NaCl (50 ml). The mixture was sonicated for 10 minutes to give a clear colorless solution. Iron stock solution (atomic absorption standard, Aldrich, 496 μl, 8.93E-06 moles) was pipetted into the solution followed by the addition of 1.000 N NaOH (137 μl). The molar ratio between the total iron and the total Apo6619 was 1:5.4. The mixture was allowed to equilibrate at room temperature overnight. Nitrogen was allowed to bubble through the solution. 1.000 N Hydrochloric acid (3 ml) was then added to the solution to give pH 1.5. The solution was allowed to equilibrate at 22° C. for 3 hours.
A sipper system was used for the circulation of the sample solution between the beaker and the flow cell.
The sample solution was titrated against standard NaOH solutions at 22° C. to reach pH 6.89. After each addition of base the solution was allowed to equilibrate until a constant pH reading was reached. The pH and the UV-Vis spectrum were recorded for each measurement. For each measurement enough base was added so that there was a slight increase in the absorbance of the spectrum. The solution was titrated until there was no obvious increase in the spectra after several subsequent additions of base. Altogether 64 measurements were taken to finish the experiment.
[…]; pM^n+ is defined as −log [M(H2O)m]^n+ at physiological conditions, i.e.: pH 7.4, a ligand concentration of 10 μM, and a metal concentration of 1 μM.
To calculate pM^n+ for a MLn system, βn and pKa values are needed (βn are the formation constants for M^n++n L^− ? MLn; pKa are the equilibrium constants for L^−+n H^+ ? LHn^(n−1)+). The pM^n+ can be calculated by using Hyss software (Hyperquad Stimulation and Speciation software: HYSS2© 2000 Protonic Sofware).

[4] = U.S. Pat. No. 6,335,353; cited from earlier work
[5] = Redox potentials of iron complexes by cyclic voltammetry; assay type: physicochemical; settings: glassy carbon working electrode, 2.0 mM, pH 7.4; for E1/2 / Ep^ox / Ep^red: vs Ag/AgCl
[6] = cited from earlier work

Compound | pKas (higher value, phenolic C3 OH) [1] | pKas (lower value, LH2+) [1] | D7.4 [2] | Log β3 [3] | pFe^3+ [3] | further results
Cc1cc(=O)c(O)c(C(=O)NC2CC2)n1C1CC1 [Apo6618, 1-Cyclopropyl-3-hydroxy-6-methyl-4-oxo-1,4-dihydro-pyridine-2-carboxylic Acid Cyclopropylamide] | 8.6 | 2.5 | 0.331 | 33.6 | 20.5 | –
Cc1cc(=O)c(O)c(C(=O)NC2CCCC2)n1C [Apo6620, N-cyclopentyl-3-hydroxy-1,6-dimethyl-4-oxo-1,4-dihydro-pyridine-2-carboxamide] | 8.7 | 2.7 | 0.78 | 33.8 | 20.3 | melting point: 289.3 °C (dec.)
Cc1cc(=O)c(O)c(C(=O)NC2CCCCC2)n1C [Apo6621, 3-Hydroxy-1,6-dimethyl-4-oxo-1,4-dihydro-pyridine-2-carboxylic Acid Cyclohexylamide] | 8.7 | 2.5 | 2.2 | 34.3 | 20.9 | –
Cc1cc(=O)c(O)c(C(=O)NC2CCC2)n1C [Apo6622, N-cyclobutyl-3-hydroxy-1,6-dimethyl-4-oxo-1,4-dihydropyridine-2-carboxamide] | 8.6 | 2.8 | 0.357 | 33.9 | 20.8 | –
CNC(=O)c1c(O)c(=O)cc(C)n1C [CP502, 1,6-Dimethyl-3-hydroxy-4(1H)-pyridinone-2-carboxy-(N-methyl)-amide hydrochloride, reference compound] | 8.5 | 2.7 | 0.04 | 33.6 | 20.9 | O-glucuronidation at the C3 oxygen [4]: effectively blocked the O-glucuronidation
CC(=O)N([O-])CCCCCNC(=O)CCC(=O)N([O-])CCCCCNC(=O)CCC(=O)N([O-])CCCCCN.[Fe+3] [Fe(DFO)] | – | – | – | – | – | ΔEp [5]: 112 mV; E1/2 [5]: −698 mV; Ep^ox [5]: −642 mV; Ep^red [5]: −754 mV; E1/2 literature value ([6]; vs Ag/AgCl, Crumbliss et al, Inorganic Chemistry 2003): −688 mV
Cc1c([O-])c(=O)ccn1C.Cc1c([O-])c(=O)ccn1C.Cc1c([O-])c(=O)ccn1C.[Fe+3] [Fe(deferiprone)3] | – | – | – | – | – | ΔEp [5]: 107 mV; E1/2 [5]: −834 mV; Ep^ox [5]: −780 mV; Ep^red [5]: −887 mV
Fe-transferrin: iron bound to transferrin in human blood | – | – | – | – | – | E1/2 ([6]; vs. Ag/AgCl): −720 mv; E1/2 ([6]; vs. NHE): −500 mv
